In patent publication US20050171353A1, “Piperidine or 8-aza-bicyclo[3.2.1]oct-3-yl derivatives useful as modulators of chemokine receptor activity (especially ccr5)” (priority 2002, published 2005):

Each compound was assayed against recombinant human CCR5 receptor (Homo sapiens, UniProt P51681) (assay: in vitro radioligand binding assay (inhibition of binding of RANTES or MIP-1α), scintillation proximity). Details: membranes from Chinese hamster ovary cells expressing recombinant human CCR5; 0.1 nM iodinated RANTES or MIP-1α; average if tested more than once.
Sequence of recombinant human CCR5 receptor (P51681 whole entry): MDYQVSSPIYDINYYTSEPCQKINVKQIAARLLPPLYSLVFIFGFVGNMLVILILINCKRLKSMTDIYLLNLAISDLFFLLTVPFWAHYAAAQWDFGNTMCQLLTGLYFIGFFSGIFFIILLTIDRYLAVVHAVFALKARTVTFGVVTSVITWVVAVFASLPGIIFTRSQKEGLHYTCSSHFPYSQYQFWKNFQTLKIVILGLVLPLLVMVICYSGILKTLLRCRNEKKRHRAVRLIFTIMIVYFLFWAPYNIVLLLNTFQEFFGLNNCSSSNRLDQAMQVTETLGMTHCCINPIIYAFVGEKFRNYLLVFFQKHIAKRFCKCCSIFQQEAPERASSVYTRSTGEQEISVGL
Method: The ability of compounds to inhibit the binding of RANTES or MIP-1α was assessed by an in vitro radioligand binding assay. Membranes were prepared from Chinese hamster ovary cells which expressed the recombinant human CCR5 receptor. These membranes were incubated with 0.1 nM iodinated RANTES or MIP-1α, scintillation proximity beads and various concentrations of the compounds of the invention in 96-well plates. The amount of iodinated RANTES or MIP-1α bound to the receptor was determined by scintillation counting.
In Table IV the results are presented as Pic50 values.
Work on CCN(C(=O)Cc1ccc(S(C)(=O)=O)cc1)C1CCN(CC[C@H](NC(=O)N2CC[C@@H](F)C2)c2ccccc2)CC1 [Table 1 Compound 3, (S)—N-[1-(3-Phenyl-3-[(R)-3-fluoropyrrolidin-1-ylcarboxyamino]propyl)-4-piperidinyl]-N-ethyl4-methanesulfonylphenylacetamide] yielded a Pic50 of 7.76.
Compound CCN(C(=O)Cc1ccc(S(C)(=O)=O)cc1)C1CCN(CC[C@H](NC(=O)N2CCC(F)CC2)c2ccccc2)CC1 [Table 1 Compound 2, (S)—N-[1-(3-phenyl-3-[4-fluoropiperidin-1-ylcarboxyamino]propyl)-4-piperidinyl]-N-ethyl-4-methanesulfonylphenylacetamide] has a Pic50 of 7.68.
In the case of “N-[1-((4S)-4-Phenyl-4-[3,3-difluorocyclobutylcarboxyamino]but-2-yl)-4-piperidinyl]-N-ethyl-4-methanesulfonylphenylacetamide hydrochloride [Table 3 Compound 8]”, the Pic50 is reported as 9.15.
In the case of CCN(C(=O)Cc1ccc(S(C)(=O)=O)cc1)[C@@H]1C[C@H]2CC[C@@H](C1)N2CC[C@H](NC(=O)C1CCC(F)(F)CC1)c1ccccc1 [Table 2 Compound 1, (S)-4,4-difluoro-cyclohexanecarboxylic acid[3-(3-{ethyl-[2-(4-methanesulfonyl-phenyl)-acetyl]-amino}-8-aza-bicyclo[3.2.1]oct-8-yl-exo)-1-phenyl-propyl]-amide], the IC50 is reported as 3.31 nM.
CCN(C(=O)Cc1ccc(S(C)(=O)=O)cc1)C1CCN(CC[C@H](NC(=O)C2CCC(F)(F)CC2)c2ccccc2)CC1 [Table 1 Compound 1, (S)—N-[1-(3-phenyl-3-[4,4-difluorocyclohexylcarboxyamino]propyl)-4-piperidinyl]-N-ethyl-4-methanesulfonylphenylacetamide] was tested, and the Pic50 was 8.95.
“(S)—N-[1-(3-[3,5-Difluorophenyl]-3-[3,3-difluorocyclobutylcarboxyamino]propyl)-4-piperidinyl]-N-ethyl-4-methanesulfonylphenylacetamide hydrochloride [Table 1 Compound 6]” showed a Pic50 of 8.65.
